The target of data set [1] is T1, Serine/threonine-protein kinase TBK1 (Homo sapiens, UniProt Q9UHD2).
T1 sequence (Q9UHD2 whole entry): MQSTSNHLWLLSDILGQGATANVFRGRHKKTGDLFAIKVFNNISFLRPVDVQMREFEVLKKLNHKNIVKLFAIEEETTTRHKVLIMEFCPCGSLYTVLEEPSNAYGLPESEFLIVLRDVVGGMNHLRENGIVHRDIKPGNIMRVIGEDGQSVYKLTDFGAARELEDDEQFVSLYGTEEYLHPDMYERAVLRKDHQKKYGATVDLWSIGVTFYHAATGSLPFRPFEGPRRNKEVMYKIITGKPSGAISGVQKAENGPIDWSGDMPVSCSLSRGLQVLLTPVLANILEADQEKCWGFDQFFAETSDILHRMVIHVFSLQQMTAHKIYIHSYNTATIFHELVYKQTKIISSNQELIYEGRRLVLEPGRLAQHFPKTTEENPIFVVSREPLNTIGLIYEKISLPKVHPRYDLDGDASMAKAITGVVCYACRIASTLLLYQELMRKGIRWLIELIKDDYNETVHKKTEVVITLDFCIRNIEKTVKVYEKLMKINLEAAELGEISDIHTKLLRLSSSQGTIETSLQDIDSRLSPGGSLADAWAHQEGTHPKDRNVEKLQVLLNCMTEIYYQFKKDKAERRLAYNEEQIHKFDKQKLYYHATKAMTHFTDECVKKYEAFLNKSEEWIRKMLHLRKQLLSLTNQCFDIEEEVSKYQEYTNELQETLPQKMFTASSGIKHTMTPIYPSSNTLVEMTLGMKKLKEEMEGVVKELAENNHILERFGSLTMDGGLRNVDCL
Description: Inhibition of TBK1 by radiometry.

For data set [2], the target named is T2, Serine/threonine-protein kinase TBK1 (Mus musculus, UniProt Q9WUN2).
T2 sequence (Q9WUN2 whole entry): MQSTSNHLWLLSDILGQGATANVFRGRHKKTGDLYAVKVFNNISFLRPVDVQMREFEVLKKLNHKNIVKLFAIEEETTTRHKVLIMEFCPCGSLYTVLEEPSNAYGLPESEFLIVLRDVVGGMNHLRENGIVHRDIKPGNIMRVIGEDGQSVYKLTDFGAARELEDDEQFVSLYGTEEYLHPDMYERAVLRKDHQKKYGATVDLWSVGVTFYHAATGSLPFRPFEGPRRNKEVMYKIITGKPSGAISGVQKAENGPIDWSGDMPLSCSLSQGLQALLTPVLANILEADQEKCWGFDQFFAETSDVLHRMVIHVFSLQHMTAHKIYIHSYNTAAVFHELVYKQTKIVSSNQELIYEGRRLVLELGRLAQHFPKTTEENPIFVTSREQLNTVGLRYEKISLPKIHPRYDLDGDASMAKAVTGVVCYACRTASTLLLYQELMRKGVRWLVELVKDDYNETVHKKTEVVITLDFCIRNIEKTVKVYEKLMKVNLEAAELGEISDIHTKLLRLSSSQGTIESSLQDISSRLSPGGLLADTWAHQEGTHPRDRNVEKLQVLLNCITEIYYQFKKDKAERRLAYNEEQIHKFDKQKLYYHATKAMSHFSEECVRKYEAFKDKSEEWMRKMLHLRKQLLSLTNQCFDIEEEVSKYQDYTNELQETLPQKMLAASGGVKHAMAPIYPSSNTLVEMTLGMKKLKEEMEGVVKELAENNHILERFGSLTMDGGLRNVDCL
Put plainly: Inhibition of TBK1-mediated RANTES release in LPS-stimulated mouse RAW264.7 cells compound incubated for 30 mins prior LPS challenge measured after 6 hrs by ELISA. The data set is classed as cell-based. (In general: ELISA stands for enzyme-linked immunosorbent assay.)

Data set [3] in a line: Metabolic stability in mouse liver microsomes assessed as compound turnover after 30 mins. In kind it is ADME, Microsome. Conditions: read-out: Drug metabolism; call rule not given here. In general terms: Liver microsomes are a subcellular fraction often used to study metabolism.
Data set [4] can be described thus: Metabolic stability in human liver microsomes assessed as compound turnover after 40 mins. To be noted: read-out: Drug metabolism. In kind it is ADME, Microsome.

As usually defined, the IC50 is the midpoint of a concentration-inhibition curve. `CCc1cnc(Nc2cccc(F)c2)nc1NCCCNC(=O)C1CCC1` returned a half-inhibitory concentration (IC50) in data set [1] of 0.063 µM.
The same measure, in the same setting: to `O=C(NCCCNc1nc(Nc2cccc(F)c2)ncc1Br)c1ccc(C(F)(F)F)cc1` belongs 0.45 µM.
The same measure, in the same setting: to `O=C(NCCCNc1nc(NC2CCCCC2)ncc1C1CC1)c1cccs1` belongs above 10 µM.
For `Cc1nn(C)c2cc(Nc3ncc(C4CC4)c(NCCCNC(=O)C4CCC4)n3)ccc12`, the half-maximal inhibitory concentration (IC50) in data set [2] (read-out: IC50) came out at 0.09 µM; in data set [1] it was 0.007 µM. In addition, in data set [3], the metabolised at 0.5 h turned out to be 41%. Moreover, the metabolised at 40 min in data set [4] was 86%.
In the same order, the values of `O=C(NCCCNc1nc(Nc2cnn(C3CCCC3)c2)ncc1C1CC1)C1CCC1` are 0.093 µM, 0.004 µM, 59% and 67%.
For the compound `CN1CCC(C(=O)NCCCNc2nc(Nc3cccc(F)c3)ncc2Br)CC1`, the IC50 in data set [1] was found to be 4.3 µM.
The same measure, in the same setting: to `CC(=O)N1CCC(C(=O)NCCCNc2nc(Nc3cccc(F)c3)ncc2Br)CC1` belongs 0.43 µM.
Same read-out and setting: the value for `O=C(NCCCNc1nc(Nc2cncnc2)ncc1C1CC1)C1CCC1` was 3.2 µM.
Turning to `CN1CCC(c2ccc(Nc3ncc(C4CC4)c(NCCCNC(=O)C4CCC4)n3)cc2)CC1`, the values for the concentration for half-maximal inhibition (IC50) in data set [2] (read-out: IC50) and in data set [1] were 0.66 µM and 0.008 µM, respectively. For the same compound, the metabolised at 0.5 h in data set [3] worked out at 30%. In addition, the metabolised at 40 min in data set [4] came out at 23%.
For the compound `O=C(NCCCNc1nc(Nc2cccc(F)c2)ncc1Br)c1cccc(N2CCOCC2)c1`, it took 3.6 µM to reach half-maximal inhibition in data set [1] (IC50).
Turning to `O=C(NCCCNc1nc(Nc2ccc3c(c2)CN(C2CC2)CC3)ncc1C1CC1)C1CCC1`, the IC50 in data set [2] (read-out: IC50) was found to be 0.57 µM; in data set [1] it was 0.007 µM. The metabolised at 0.5 h in data set [3] came to 86%. For the same compound, the metabolised at 40 min in data set [4] turned out to be 91%.
On the same counts, the results for `CCn1cc(Nc2ncc(C3CC3)c(NCCCNC(=O)C3CCC3)n2)cn1` are 0.14 µM, 0.007 µM, 54% and 37%.
Take `CN1CCN(C(=O)c2ccc(Nc3ncc(C4CC4)c(NCCCNC(=O)C4CCC4)n3)cc2)CC1`: the figures for the IC50 entry in data set [2] (raw264.7) and in data set [1] were “Not Active” and 0.002 µM, respectively.
In the case of `O=C(NCCCNc1nc(Nc2cnn(CCN3CCOCC3)c2)ncc1C1CC1)C1CCC1`, the figures for the concentration for half-maximal inhibition (IC50) in data set [2] (read-out: IC50) and in data set [1] were 9 µM and 0.009 µM, respectively. Also, the metabolised at 0.5 h in data set [3] was 68%. The metabolised at 40 min in data set [4] worked out at 46%.
`O=C(NCCCNc1nc(Nc2cccc(F)c2)ncc1CC1CC1)C1CCC1` showed an IC50 in data set [1] above 1 µM.
Still for that read-out and setting: the value for `Cn1ccc(Nc2ncc(C3CC3)c(NCCCNC(=O)C3CCC3)n2)n1` was above 1 µM.
Consider `O=C(NCCCNc1nc(Nc2cccc(Cn3cncn3)c2)ncc1C1CC1)C1CCC1`, for which the results for the IC50 in data set [2] (read-out: IC50) and in data set [1] were 0.088 µM and 0.003 µM, respectively. For the same compound, in data set [4], the metabolised at 40 min amounted to 63%.
`CC(C)c1cnc(Nc2cccc(F)c2)nc1NCCCNC(=O)C1CCC1`: the IC50 in data set [1] was above 1 µM.
`O=C(NCCCNc1nc(Nc2cccc(F)c2)ncc1Br)c1cnccn1` had an IC50 in data set [1] of 0.022 µM.
Consider `O=C(NCCCNc1nc(Nc2cccc(NC(=O)N3CCCC3)c2)ncc1Br)c1cccs1`, for which half-maximal inhibition in data set [1] (IC50) was put at 0.006 µM.
As for `O=C(NCCCNc1nc(Nc2cccc(N3CCOCC3)c2)ncc1C1CC1)C1CCC1`, the concentration for half-maximal inhibition (IC50) was determined as 0.58 µM in data set [2] (read-out: IC50) and 0.028 µM in data set [1].
Turning to `O=C(NCCCNc1nc(Nc2ccccc2F)ncc1C1CC1)c1cccs1`, the concentration for half-maximal inhibition (IC50) in data set [1] was 0.82 µM.
In data set [1], `O=C(NCCCNc1nc(NCc2ccc(F)cc2)ncc1C1CC1)c1cccs1` returned a half-maximal inhibitory concentration (IC50) above 10 µM.
For `O=C(NCCCNc1nc(Nc2cccnc2)ncc1C1CC1)C1CCC1`, the figures for the IC50 in data set [2] (read-out: IC50) and in data set [1] were above 1 µM and 0.013 µM, respectively.
Take `COCCC(=O)NCCCNc1nc(Nc2cccc(F)c2)ncc1Br`: in data set [1], half-maximal inhibition (IC50) required 0.06 µM.
On the same count and under the same terms, to `O=C(CCc1ccccc1)NCCCNc1nc(Nc2cccc(F)c2)ncc1Br` belongs 0.56 µM; to `O=C(NCCCNc1nc(Nc2cccc(F)c2)ncc1C1CC1)c1cccs1`, 0.11 µM.

(Values after ChEMBL document CHEMBL2203069, “Synthesis and structure-activity relationships of a novel series of pyrimidines as potent inhibitors of TBK1/IKKε kinases” (Bioorg Med Chem Lett, 2012).)
